Data from patent publication US8188053B2, “Anti-inflammatory peptides” (The University of Manchester, priority 2005, dated 2012).
Entries after “also recorded” stand apart in the source; their conditions may differ.

B1: hTRX: Recombinant human thioredoxin (SEQ ID NO. 14), from which the peptides of the invention are derived (protein, listed as Homo sapiens)
chain: MVKQIESKTAFQEALDAAGDKLVVVDFSATWCGPCKMIKPFFHSLSEKYSNVIFLEVDVDDCQDVASECEVKCMPTFQFFKKGQKVGEFSGANKEKLEATINELV

Tests used:
Assay type in all cases: in vivo
[1] = test system: allergen (oxazolone) induced Langerhans Cell (LC) migration; test: allergen (oxazolone) induced Langerhans Cell (LC) migration after prior topical application of peptide; conditions: for inhibition of allergen-induced LC migration: prior topical exposure to peptide, subsequent oxazolone at the same site; for biological activity (epidermal LC migration), equimolar comparison: equimolar doses (1.38 μM): 0.5 μg hTRX, 0.04 μg 9-mer, 0.025 μg KMIKP, 0.016 μg CGPC
Experimental: Various tissue studies are conducted to examine the effect of each of the aforementioned polypeptides on allergen (oxazolone) induced Langerhans Cell (LC) migration. Applications are in μg unless otherwise stated.
The purpose of this experiment is to determine whether topical application of peptide 1 is able to influence the integrity of LC migration induced by subsequent exposure at the same site to oxazolone, a potent contact allergen known to cause the mobilization of LC. The results of a representative experiment are illustrated in FIG. 1.
The purpose of this experiment is to determine whether topical application of peptide 3 is able to influence the integrity of LC migration induced by subsequent exposure at the same site to oxazolone. The results of three independent experiments are illustrated in FIG. 2. […] The conclusion drawn is that topically applied peptide 3 is able to inhibit one or more biological processes required for the effective mobilization and migration of LC in response to a stimulus, in this instance the contact allergen oxazolone.

[2] = test system: Langerhans Cell migration induced by IL-1β; test: Langerhans Cell migration provoked by intradermal administration of homologous IL-1β after prior topical peptide; conditions: prior topical exposure; id administration of homologous IL-1β
From the text: (§1) The purpose of this experiment is to investigate whether the 9-mer peptide (CGPCKMIKP; SEQ ID NO: 9) could affect Langerhans Cell migration induced by either IL-1β or TNF-α. The results of a representative experiment are illustrated in FIG. 9. […] The interpretation is that topical administration of the 9-mer peptide is associated with a perturbation of IL-1β function.

[3] = test system: Langerhans Cell migration induced by TNF-α; test: Langerhans Cell migration induced by intradermal injection of homologous TNF-α after prior topical peptide; conditions: prior topical exposure; intradermal (id) injection of homologous TNF-α
From the text: as §1

| Molecule | inhibition of allergen-induced LC migration [1] | biological activity (epidermal LC migration), equimolar comparison [1] | also measured |
| --- | --- | --- | --- |
| AGPAKMIKP [cysteine free 9-mer peptide] | active | – | – |
| ANKEKLEATINELV [peptide 7] | does not inhibit | – | – |
| IPCMPKCKG [scrambled 9-mer, reference compound] | not biologically active | – | – |
| CGPC [reference compound] | – | all but the CGPC (SEQ ID NO: 22) peptide appear to exhibit biological activity | – |
| CGPCKMIKP [9-mer peptide] | activity of the 9-mer peptide at all doses tested; also recorded: active | appear to exhibit biological activity | inhibition of allergen-induced LC migration ([1]; listed as 9-mer): active; influence on Langerhans Cell migration provoked by IL-1β [2]: without influence; inhibition of Langerhans Cell migration induced by TNF-α [3]: almost complete inhibition |
| KMIMP | active | – | – |
| SATYCGPCKMIKP [peptide RV-1] | does inhibit; also recorded: active | – | – |
| VKQIESKTAFQEALDAAGDK [peptide 1] | does not inhibit | – | – |
| CGPCKMIKPFFHSLSEKYSN [peptide 3] | some indication for a dose-related inhibition; also recorded: substantial inhibition; also recorded: active | – | inhibition of allergen-induced LC migration at the highest concentration tested ([1]; highest concentration (0.5 μg) tested, three independent experiments, oxazolone): complete (or near complete) inhibition; variation in activity between peptide synthesis batches ([1]; two independent preparations of peptide 3, oxazolone-induced LC migration): only a small variation in activity |
| KMIKP | – | appear to exhibit biological activity | – |
| B1 | – | appear to exhibit biological activity | – |
